We go through twelve compounds from ChEMBL document CHEMBL1201862, “PubChem BioAssay data set” (2004).

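A five-concentration, 48-hour dose response in 96-well plates underlies each endpoint, interpolated linearly between surrounding concentrations. The concentration for 50% growth inhibition is given as GI50.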 The source made the active and inactive calls. Rule as the data show it: active = GI50 up to about 1.1 µM and inactive = higher.

A word on the GI50: it is the concentration giving 50% growth inhibition.

Some test systems named below: NCI/ADR-RES; 786-0; PC-3; TK-10; CAKI-1; HCT-15; MDA-MB-435; RXF 393; MOLT-4; UO-31; OVCAR-3; SNB-19; OVCAR-8; CCRF-CEM; COLO 205; SK-OV-3; SK-MEL-28; SNB-75; IGROV-1; LOX IMVI.
What all share (test): DTP human tumour cell line panel, 48 h

As for `COc1ccc(OC)c(C23CCCC(C2)N(C)CC3)c1` (stereo not drawn), the GI50 with NCI/ADR-RES is 60.3 µM (inactive); in the test with 786-0 it was 25.3 µM (inactive); with PC-3 it was 16.4 µM (inactive); in the test on TK-10, 40.3 µM (inactive); with CAKI-1, 46.5 µM (inactive); with HCT-15, 34 µM. The GI50 is 20.1 µM (inactive) in the test on MDA-MB-435; 29.9 µM (inactive) with RXF 393; 32.1 µM (inactive) in the test on MOLT-4; 28.6 µM (inactive) with UO-31; 19.6 µM (inactive) with OVCAR-3; 6.75 µM (inactive) in the test on SNB-19.
For `O=C(/C=C/c1ccc(O)c(O)c1)NCCc1ccc(-c2ccccc2)cc1`, the GI50 was 64.7 µM (inactive) in the test on NCI/ADR-RES; > 100 µM (inactive) in the test with OVCAR-8; 49.7 µM (inactive) with 786-0; 26.5 µM (inactive) in the test with CCRF-CEM; > 100 µM (inactive) in the test on PC-3; 19.1 µM (inactive) in the test with TK-10. The GI50 in the test on CAKI-1 is 40.8 µM (inactive); in the test on COLO 205, 78.3 µM (inactive); in the test with HCT-15, > 100 µM; in the test with RXF 393 it was 57.1 µM (inactive); with MOLT-4, 41.3 µM (inactive); with SK-OV-3, > 100 µM (inactive). Also, the GI50 with UO-31 was 94.8 µM (inactive); with OVCAR-3 it was 20.4 µM (inactive); with SK-MEL-28 it was 59.8 µM (inactive); with SNB-75 it was > 100 µM (inactive); in the test on SNB-19, > 100 µM (inactive).
As to `CC1(C)C=[N+]([O-])C(C)(C)N1O`, the GI50 in the test on NCI/ADR-RES, in the test with OVCAR-8, with 786-0, in the test on CCRF-CEM, in the test with PC-3 and with TK-10 was > 10 µM (inactive) throughout. Also, the GI50 with CAKI-1 was > 10 µM (inactive); in the test on COLO 205, > 10 µM (inactive); with HCT-15, > 10 µM; in the test on MDA-MB-435 it was > 10 µM (inactive); with RXF 393 it was > 10 µM (inactive); in the test on MOLT-4, > 10 µM (inactive). Moreover, the GI50 in the test with UO-31, with OVCAR-3 and with SNB-19 was > 10 µM (inactive) in each case.
`CSc1nc(Br)nc2ncn(C3CC(Oc4ccc(C)cc4)C(COc4ccc(C)cc4)O3)c12` (stereo not drawn): the GI50 with IGROV-1 was > 100 µM (inactive); in the test with NCI/ADR-RES, > 100 µM (inactive); in the test with OVCAR-8 it was 80.7 µM (inactive); in the test with 786-0, > 100 µM (inactive); with CCRF-CEM it was > 100 µM (inactive); in the test on PC-3 it was > 100 µM (inactive). Further, the GI50 in the test with TK-10 is > 100 µM (inactive); with CAKI-1 it was 66.2 µM (inactive); in the test on COLO 205, > 100 µM (inactive); in the test with HCT-15, > 100 µM; in the test with MDA-MB-435 it was > 100 µM (inactive); in the test with MOLT-4 it was > 100 µM (inactive). Further, the GI50 with SK-OV-3 is > 100 µM (inactive); in the test on UO-31 it was 17.7 µM (inactive); in the test with OVCAR-3, > 100 µM (inactive); with SK-MEL-28, > 100 µM (inactive); in the test on SNB-75, 21.9 µM (inactive); in the test on SNB-19, > 100 µM (inactive). For the same compound, the GI50 with LOX IMVI is > 100 µM (inactive).
`COc1cc(/C=c2\sc3n(c2=O)C(c2ccc(Cl)cc2)C2=C(CCCC2C)N=3)cc(OC)c1OC` (stereo not drawn): the GI50 in the test on IGROV-1, in the test on OVCAR-8, in the test with 786-0, in the test with CCRF-CEM, in the test with PC-3 and in the test on TK-10 was > 100 µM (inactive) throughout. Also, the GI50 in the test on CAKI-1 is > 100 µM (inactive); in the test with HCT-15 it was > 100 µM; with MDA-MB-435 it was > 100 µM (inactive); with RXF 393, > 100 µM (inactive); with MOLT-4 it was > 100 µM (inactive); in the test with SK-OV-3 it was > 100 µM (inactive). Besides, the GI50 with UO-31, with SK-MEL-28, in the test on SNB-75, with SNB-19 and with LOX IMVI was > 100 µM (inactive) in each case.
For the compound `COc1ccc2c(c1OC)OC[C@@H](C1=CC(=O)C=C(O)C1=O)C2`, the GI50 is 11.7 µM (inactive) in the test with IGROV-1; 24.5 µM (inactive) in the test with NCI/ADR-RES; 19.1 µM (inactive) in the test with OVCAR-8; 5.38 µM (inactive) with 786-0; 1.36 µM (inactive) in the test on CCRF-CEM; 13.1 µM (inactive) in the test on PC-3. The GI50 in the test with TK-10 was 14.2 µM (inactive); with COLO 205 it was 21.3 µM (inactive); in the test with HCT-15, 14.7 µM; in the test on MDA-MB-435 it was 8.61 µM (inactive); with RXF 393, 6.4 µM (inactive); with MOLT-4, 0.838 µM (active). Moreover, the GI50 with SK-OV-3 was 16.6 µM (inactive); in the test on UO-31, 12.6 µM (inactive); with OVCAR-3, 7.62 µM (inactive); in the test on SK-MEL-28 it was 16.9 µM (inactive); in the test on SNB-75, 9.62 µM (inactive); in the test on SNB-19 it was 16 µM (inactive). For the same compound, the GI50 with LOX IMVI was 3.32 µM (inactive).
For `Cc1cnoc1/N=C1\C=C(O)C(=O)c2ccccc21`, the GI50 in the test on IGROV-1 is 22.8 µM (inactive); in the test on NCI/ADR-RES, 8.45 µM (inactive); in the test on OVCAR-8, 25.8 µM (inactive); with 786-0, 53.2 µM (inactive); in the test on CCRF-CEM it was 16.1 µM (inactive); with PC-3, 25.4 µM (inactive). Also, the GI50 is > 100 µM (inactive) with TK-10; 28.6 µM (inactive) in the test on CAKI-1; 35.9 µM (inactive) in the test with COLO 205; 12.2 µM in the test on HCT-15; 1.31 µM (inactive) with MDA-MB-435; 17.4 µM (inactive) in the test with MOLT-4. Besides, the GI50 was > 100 µM (inactive) with SK-OV-3; 10.8 µM (inactive) in the test on UO-31; 5.26 µM (inactive) with OVCAR-3; 29.9 µM (inactive) with SK-MEL-28; 10.4 µM (inactive) with SNB-75; 16.3 µM (inactive) with SNB-19. Further, in the test with LOX IMVI, the GI50 was 5.26 µM (inactive).
For `O=C(O)C1(Cc2ccc3c(c2)CCC3)Cc2ccccc2C1`, the GI50 in the test with IGROV-1 is > 100 µM (inactive); in the test on NCI/ADR-RES, 78.2 µM (inactive); in the test with OVCAR-8, 63.7 µM (inactive); in the test on 786-0 it was > 100 µM (inactive); with CCRF-CEM, 62.8 µM (inactive); in the test with PC-3 it was 63.5 µM (inactive). The GI50 in the test with TK-10 was > 100 µM (inactive); in the test with COLO 205, 30.2 µM (inactive); with HCT-15, 54.2 µM; with MDA-MB-435, > 100 µM (inactive); in the test with RXF 393, 68.2 µM (inactive); in the test on MOLT-4, 71.8 µM (inactive). Besides, the GI50 in the test on SK-OV-3 is 31 µM (inactive); in the test on UO-31 it was 46.1 µM (inactive); in the test on OVCAR-3, 71.3 µM (inactive); with SK-MEL-28, 60.8 µM (inactive); in the test on SNB-75, 67.1 µM (inactive); in the test on SNB-19, > 100 µM (inactive). Further, in the test on LOX IMVI, the GI50 is 87.1 µM (inactive).
`CCOc1ccc(NC(=O)/C(=N\NC(C)(C)C)C2C(=O)Nc3ccccc3[S+]2[O-])cc1` (stereo not drawn): the GI50 with IGROV-1 is > 100 µM (inactive); with NCI/ADR-RES, > 100 µM (inactive); in the test with OVCAR-8, > 100 µM (inactive); in the test on 786-0, > 100 µM (inactive); in the test on CCRF-CEM it was 94.6 µM (inactive); in the test with PC-3, > 100 µM (inactive). Also, the GI50 in the test on TK-10 is > 100 µM (inactive); in the test on COLO 205, > 100 µM (inactive); in the test on HCT-15, > 100 µM; with MDA-MB-435 it was > 100 µM (inactive); in the test on RXF 393, > 100 µM (inactive); with MOLT-4, > 100 µM (inactive). Also, the GI50 in the test on SK-OV-3, in the test with UO-31, in the test with OVCAR-3, with SK-MEL-28, in the test on SNB-75 and in the test with SNB-19 was > 100 µM (inactive) each time.
As for `CN1CC[C@@]2(c3cccc(O)c3)CC(=O)/C(=C/c3ccccc3)[C@H]1C2.[O-][Cl+3]([O-])([O-])O`, the GI50 in the test on IGROV-1 was 13.7 µM (inactive); with NCI/ADR-RES it was 3.85 µM (inactive); with OVCAR-8, 8.22 µM (inactive); with 786-0, 4.44 µM (inactive); in the test with CCRF-CEM it was 3.12 µM (inactive); in the test with PC-3 it was 4.29 µM (inactive). The GI50 in the test with TK-10 was 15.7 µM (inactive); in the test with CAKI-1 it was 1.64 µM (inactive); with COLO 205 it was 8.05 µM (inactive); with HCT-15 it was 5.89 µM; in the test with MDA-MB-435, 3.05 µM (inactive); in the test on RXF 393, 8.17 µM (inactive). Besides, the GI50 was 2.49 µM (inactive) with MOLT-4; 12.9 µM (inactive) in the test with UO-31; 11.2 µM (inactive) in the test on SK-MEL-28; 2.47 µM (inactive) in the test on SNB-75; 7.31 µM (inactive) in the test on SNB-19; 1.7 µM (inactive) with LOX IMVI.
On to `CCc1c(Cc2cc(C)cc(C)c2)n2c(nc1=O)SCC2CBr` (stereo not drawn), for which the GI50 in the test on IGROV-1 is 24.2 µM (inactive); in the test with NCI/ADR-RES, > 50 µM (inactive); with OVCAR-8, 10.4 µM (inactive); with 786-0 it was > 50 µM (inactive); in the test on CCRF-CEM, 12.6 µM (inactive); in the test on PC-3, > 50 µM (inactive). The GI50 is 34 µM (inactive) in the test with TK-10; > 50 µM (inactive) with CAKI-1; > 50 µM (inactive) with COLO 205; > 50 µM with HCT-15; > 50 µM (inactive) in the test on MDA-MB-435; > 50 µM (inactive) in the test on RXF 393. For the same compound, the GI50 in the test with MOLT-4 is 34 µM (inactive); in the test on UO-31, > 50 µM (inactive); in the test on SK-MEL-28, > 50 µM (inactive); in the test with SNB-75, 15.5 µM (inactive); with SNB-19, 23.1 µM (inactive); with LOX IMVI, > 50 µM (inactive).
In the case of `O=C1CC(c2ccc(Cl)cc2)Oc2ccccc21` (stereo not drawn), the GI50 with IGROV-1 was 14.6 µM (inactive); in the test on NCI/ADR-RES it was 16.1 µM (inactive); in the test with OVCAR-8, 37.2 µM (inactive); in the test with 786-0 it was 16.3 µM (inactive); in the test on CCRF-CEM, 11 µM (inactive); in the test on PC-3, 20.2 µM (inactive). Also, the GI50 with TK-10 was 27.4 µM (inactive); with CAKI-1, 26.3 µM (inactive); with COLO 205, 27 µM (inactive); in the test with HCT-15, 17 µM; in the test on MDA-MB-435, 36.8 µM (inactive); with SK-OV-3 it was 19.4 µM (inactive). Besides, the GI50 with UO-31 is 18.1 µM (inactive); in the test with SK-MEL-28 it was 85.9 µM (inactive); in the test on SNB-75, 13.6 µM (inactive); in the test on SNB-19 it was 26.8 µM (inactive); with LOX IMVI, 29.8 µM (inactive).
